The source of these data is US9174997B2, “4-(4-cyano-2-thioaryl)dihydropyrimidinones and use thereof” (Bayer Intellectual Property GmbH, priority 2007, dated 2015).

The data set concerns rat hepatocytes. The data set can be described thus: Hepatocyte assay to determine the metabolic stability. Format: in vitro ADME. To be noted: after incubation with rat hepatocytes. The protocol: B-6. Hepatocyte Assay to Determine the Metabolic Stability
The metabolic stability of test compounds in the presence of hepatocytes is determined by incubating the compounds with low concentrations (preferably below or around 1 μM) and with low cell counts (preferably 1*10^6 cells/ml) in order to ensure as far as possible linear kinetic conditions in the experiment. Seven samples of the incubation solution are taken in a fixed time pattern for the […] analysis in order to determine the half-life (i.e. the degradation) of the compound in each case. Various clearance parameters (CL) and Fmax values are calculated from this half-life (see below).
The Cl and Fmax values represent a measure of the phase 1 and phase 2 metabolism of the compounds in the hepatocytes. In order to minimize the influence of the organic solvent on the enzymes in the incubation mixtures, this concentration is generally limited to 1% (acetonitrile) or 0.1% (DMSO).
A cell count for hepatocytes in the liver of 1.1*10^8 cells/g of liver is used for calculation for all species and breeds.
The calculated parameters and their meaning are:
Representative values for the compounds according to the invention from this assay after incubation of the compounds with rat hepatocytes are shown in Table B below: […]

As to `CN1CC2=C(C1=O)C(c1ccc(C#N)cc1S(C)(=O)=O)N(C(=O)NCCO)C(=O)N2c1cccc(C(F)(F)F)c1` (racemic) [Example 38, (rac)-4-[4-Cyano-2-(methylsulfonyl)phenyl]-N-(2-hydroxyethyl)-6-methyl-2,5-dioxo-1-[3-(trifluoromethyl)phenyl]-1,2,4,5,6,7-hexahydro-3H-pyrrolo[3,4-d]pyrimidine-3-carboxamide], the “CLblood, calculated blood clearance (well stirred model)” value (“CLblood, calculated blood clearance” for short) is 3.3 mL/min/kg and the “Fmax, maximum possible bioavailability after oral administration (well-stirred)” value (“Fmax, maximum possible bioavailability” below) was determined as 96%.
Consider `CC1=C(C(N)=O)[C@@H](c2ccc(C#N)cc2S(C)(=O)=O)NC(=O)N1c1cccc(C(F)(F)F)c1` [Example 5, (4S)-4-[4-Cyano-2-(methylsulfonyl)phenyl]-6-methyl-2-oxo-1-[3-(trifluoromethyl)phenyl]-1,2,3,4-tetrahydropyrimidine-5-carboxamide], for which the “CLblood, calculated blood clearance” value is 0 mL/min/kg and the “Fmax, maximum possible bioavailability” value was found to be 100%.
With `CC1=C(C#N)[C@@H](c2ccc(C#N)cc2S(C)(=O)=O)NC(=O)N1c1cccc(C(F)(F)F)c1` [Example 6, (4S)-4-[4-Cyano-2-(methylsulfonyl)phenyl]-6-methyl-2-oxo-1-[3-(trifluoromethyl)phenyl]-1,2,3,4-tetrahydropyrimidine-5-carbonitrile], the “CLblood, calculated blood clearance” value was 3.3 mL/min/kg and the “Fmax, maximum possible bioavailability” value stood at 96%.
The corresponding values for `CC1=C(C#N)[C@@H](c2ccc(C#N)cc2S(C)(=O)=O)N(CC(=O)N2CCNC(=O)C2)C(=O)N1c1cccc(C(F)(F)F)c1` [Example 25, (4S)-4-[4-Cyano-2-(methylsulfonyl)phenyl]-6-methyl-2-oxo-3-[2-oxo-2-(3-oxopiperazin-1-yl)ethyl]-1-[3-(trifluoromethyl)phenyl]-1,2,3,4-tetrahydropyrimidine-5-carbonitrile] are 5 mL/min/kg and 93%.
For `CC1=C(C#N)[C@@H](c2ccc(C#N)cc2S(C)(=O)=O)N(S(=O)(=O)c2ccccc2OC(F)(F)F)C(=O)N1c1cccc(C(F)(F)F)c1` [Example 29, (4S)-4-[4-Cyano-2-(methylsulfonyl)phenyl]-6-methyl-3-{[2-(trifluoromethoxy)phenyl]sulfonyl}-2-oxo-1-[3-(trifluoromethyl)phenyl]-1,2,3,4-tetrahydropyrimidine-5-carbonitrile], the “CLblood, calculated blood clearance” value was 6.7 mL/min/kg and the “Fmax, maximum possible bioavailability” value was found to be 90%.
The corresponding values for `CCS(=O)(=O)N1C(=O)N(c2cccc(C(F)(F)F)c2)C(C)=C(C#N)[C@H]1c1ccc(C#N)cc1S(C)(=O)=O` [Example 31, (4S)-4-[4-Cyano-2-(methylsulfonyl)phenyl]-6-methyl-3-(ethylsulfonyl)-2-oxo-1-[3-(trifluoromethyl)phenyl]-1,2,3,4-tetrahydropyrimidine-5-carbonitrile] are 6.7 mL/min/kg and 91%.
The corresponding values for `CC1=C(C#N)[C@@H](c2ccc(C#N)cc2S(C)(=O)=O)N(C)C(=O)N1c1cccc(C(F)(F)F)c1` [Example 33, (4S)-4-[4-Cyano-2-(methylsulfonyl)phenyl]-3,6-dimethyl-2-oxo-1-[3-(trifluoromethyl)phenyl]-1,2,3,4-tetrahydropyrimidine-5-carbonitrile] are 10 mL/min/kg and 87%.
For the compound `CC1=C(C#N)[C@@H](c2ccc(C#N)cc2S(C)(=O)=O)N(S(=O)(=O)c2cn(C)c(C)n2)C(=O)N1c1cccc(C(F)(F)F)c1` [Example 92], the “CLblood, calculated blood clearance” value is 12 mL/min/kg and the “Fmax, maximum possible bioavailability” value is 83%.
The corresponding values for `CC1=C(C#N)[C@@H](c2ccc(C#N)cc2S(C)(=O)=O)N(c2ccc(C#N)cc2)C(=O)N1c1cccc(C(F)(F)F)c1` [Example 117, (4S)-4-[4-Cyano-2-(methylsulfonyl)phenyl]-3-(4-cyanophenyl)-6-methyl-2-oxo-1-[3-(trifluoromethyl)phenyl]-1,2,3,4-tetrahydropyrimidine-5-carbonitrile] are 1.7 mL/min/kg and 97%.
The corresponding values for `CC1=C(C#N)[C@@H](c2ccc(C#N)cc2S(C)(=O)=O)N(c2cccc(C(F)(F)F)c2)C(=O)N1c1cccc(C(F)(F)F)c1` [Example 118, (4S)-4-[4-Cyano-2-(methylsulfonyl)phenyl]-6-methyl-2-oxo-1,3-bis[3-(trifluoromethyl)phenyl]-1,2,3,4-tetrahydropyrimidine-5-carbonitrile] are 10 mL/min/kg and 86%.
The corresponding values for `CN1CC2=C(C1=O)[C@@H](c1ccc(C#N)cc1S(C)(=O)=O)N(C)C(=O)N2c1cccc(C(F)(F)F)c1` [Example 123, 4-(4S)-3,6-Dimethyl-2,5-dioxo-1-[3-(trifluoromethyl)phenyl]-2,3,4,5,6,7-hexahydro-1 H-pyrrolo[3,4-d]pyrimidin-4-yl-3-(methylsulfonyl)benzonitrile] are 16.7 mL/min/kg and 75%.
For the compound `CCS(=O)(=O)c1cc(C#N)ccc1[C@H]1NC(=O)N(c2cccc(C(F)(F)F)c2)C(C)=C1C#N` [Example 127, (4S)-4-[4-Cyano-2-(ethylsulfonyl)phenyl]-6-methyl-2-oxo-1-[3-(trifluoromethyl)phenyl]-1,2,3,4-tetrahydropyrimidine-5-carbonitrile], the “CLblood, calculated blood clearance” value was 3.3 mL/min/kg and the “Fmax, maximum possible bioavailability” value is 94%.
The corresponding values for `CCS(=O)(=O)c1cc(C#N)ccc1[C@@H]1C(C#N)=C(C)N(c2cccc(C(F)(F)F)c2)C(=O)N1S(C)(=O)=O` [Example 129, (4S)-4-[4-Cyano-2-(ethylsulfonyl)phenyl]-6-methyl-3-(methylsulfonyl)-2-oxo-1-[3-(trifluoromethyl)phenyl]-1,2,3,4-tetrahydropyrimidine-5-carbonitrile] are 15 mL/min/kg and 79%.
